In patent US12440493B2, “Combination therapy for treating cancer comprising substituted piperazines” (Eli Lilly and Company, priority 2020, dated 2025):
Where “and” joins values, the source holds several entries; their conditions need not be identical. Identical values can stand only once.

Experiments:
2-HG production = experiment: Plasma 2-HG inhibition (LC-MS metabolite analysis in plasma of AML PDx model); format: in vivo, human
[1] = test system: IDH1(R132H) primary human AML cells; experiment: AML cell differentiation in blood (flow cytometry, % hCD33+hCD11b+ of hCD45+ cells), human AML PDx models in NSG mice; format: in vivo; conditions: for AML cell differentiation (% hCD33 + hCD11b+ (of hCD45+ cells)): F: 50 mg/kg Midostaurin, QD, PO, one animal
Method: (§1) Compounds and Formulation. For in vivo studies, each test article is prepared at an appropriate concentration with vehicle. […] Compound A is prepared fresh at the appropriate concentrations with vehicle every 7 days and stored at 4° C. between doses. […] Cytarabine is prepared fresh weekly by dilution with sterile saline from stock solution of Cytarabine (injection 20 mg/mL, (Pfizer injectables')). Azacitidine (Sigma, Lot #MKBR7212) is formulated in sterile water and is prepared fresh daily immediately before dosing. In vivo human AML PDx models. […] Two models are used in the studies: […] As needed, splenocytes from tumor-bearing mice are used to propagate and expand the models, as described. Each test article is prepared as described above at an appropriate concentration with vehicle to give animals the doses tested in this study at a dosing volume of 10 μL/gram body weight. Mice receiving Compound A (PO, QD) are treated at the indicated doses for the duration of the study. The combination agents are dosed as follows: […] Treated mice are assessed in comparison to vehicle treated and naïve (non-tumor bearing) control mice. Body weight is recorded twice per week. […] AML PDx model propagation. […] Spleens are processed and splenocytes isolated as described below. Two hundred μL per subject of the splenocyte prep is injected IV (intravenous, tail vein) into recipient NSG mice. […] Once engraftment is confirmed, the mice are monitored biweekly until ready to be put on study. […] Submandibular blood is collected. Spleen/Splenocyte Processing and Prep. After excision, a spleen is weighed, and […] is placed in a standard sterile 15 mL polypropylene conical tube containing PBS, and placed on ice. […] The spleen is placed in ice cold sterile PBS in a 15 mL collection tube. The spleen is removed from the collection tube and placed in a 100 micron 50 mL conical tube cell strainer (BD Falcon #352360). The spleen is processed by gentle rubbing of the spleen tissue against the surface of the cell strainer with the end of a 5 mL syringe plunger in a circular motion. The surface of the strainer is rinsed with 10 mL room temperature sterile DPBS (HyClone SH30028) 3 times during the process. […] The cell pellet is collected by centrifugation (300×g) and washed three times with 30 mL sterile DPBS. The cells are counted and resuspended in DPBS at the desired implant concentration. Bone Marrow Collection. […] Flow cytometry analysis of human white cells. Submandibular blood samples from in vivo studies are collected. Fluor-conjugated antibody stains are added according to the manufacturer's instructions (anti-human CD33-PE (clone WM53, BD Cat #555450), anti-human CD14-APC (clone MφpP9, BD Cat #340436), anti-human CD15-V450 (clone HI98, BD Cat #561584), anti-human CD117-BV421 (clone YB5.B8, BD Cat #562434), anti-human […]7 (clone ICRF44, BD Cat #557754), anti-human […]7 (clone HI30, BD Cat #557748), and anti-human CD3-FITC (clone SK7, BD Cat #340542)). The samples are incubated for 30 minutes at room temperature, protected from light. After the incubation, 1.5 mL 1×BD Lyse/Fix (37° C., (BD #558049)) is added to each sample and incubated for 12 minutes at room temperature. The tubes are centrifuged at 300×g for 7 minutes. BD Lyse/Fix solution is aspirated and the cell pellet washed with stain/wash buffer 3 times (1 wash step consisted of: pellet resuspended in 3 mL stain/wash buffer, centrifuged at 300×g, aspirated wash). Fixed cells are then resuspended in 300 to 400 μL stain/wash buffer. Samples are analyzed on a Becton Dickinson FACSVerse Flow cytometer (Cat #651155 Serial #Z6511550447) using standard flow cytometry principles and techniques. Samples are analyzed on the same day as they are stained and fixed. Population gating and data analysis of percent population are performed in the FACSuite software on the FACSVerse cytometer. Percent population values from the data analysis are plotted in Graphpad Prism or in JMP13. […]

[2] = test system: IDH1(R132H) primary human AML cells; experiment: Bone marrow AML clearance (flow cytometry), human AML PDx models in NSG mice; format: in vivo
Method: as §1

[3] = test system: IDH1(R132H) primary human AML cells; experiment: AML clearance in peripheral blood (flow cytometry, % hCD33+hCD45+ of total white cells), human AML PDx models in NSG mice; format: in vivo; conditions: for AML clearance (% hCD33 + hCD45+ (of total white cells)): 50 mg/kg Midostaurin, QD, PO, each value one animal, 50 mg/kg; for % peripheral blood AML cells (treatment group value): group F: midostaurin (50 mg/kg)
Method: as §1

[4] = plasma, F: 50 mg/kg Midostaurin, QD, PO, one line per animal
[5] = 50 mg/kg Midostaurin, QD, PO, each line one animal

CO[C@@H]1[C@H](N(C)C(=O)c2ccccc2)C[C@H]2O[C@]1(C)n1c3ccccc3c3c4c(c5c6ccccc6n2c5c31)C(=O)NC4 [Midostaurin, reference compound]
% plasma 2-HG (treatment group value) (2-HG production; group F: midostaurin (50 mg/kg), vehicle 100%): 70% | 2-HG (2-HG production; [4]): 14.919 µM and 11.402 µM and 7.494 µM and 21.55 µM and 10.075 µM | Naive Subtracted 2-HG (2-HG production; [4]): 12.51 µM and 8.993 µM and 5.085 µM and 19.141 µM and 7.666 µM | AML cell differentiation (% hCD33 + hCD11b+ (of hCD45+ cells)) ([1]; treatment day 7): 25.48% and 12.53% and 9% and 38.3% and 27.14% | AML cell differentiation (% hCD33 + hCD11b+ (of hCD45+ cells)) ([1]; treatment day 23): 25.27% and 17.13% and 9.1% and 36.3% and 25.56% | AML cell differentiation (% hCD33 + hCD11b+ (of hCD45+ cells)) ([1]; treatment day 36): 45.81% and 34.03% and 21.16% and 47.53% and 25.64% | AML cell differentiation (% hCD33 + hCD11b+ (of hCD45+ cells)) ([1]; treatment day 50): 43.86% and 28.75% and 20.78% and 40% and 30.3% | AML cell differentiation (% hCD33 + hCD11b+ (of hCD45+ cells)) ([1]; treatment day −8 (before treatment)): 19.58% and 13.81% and 18.12% and 19.57% | % AML cell differentiation (treatment group value) ([1]; day 50, group F: midostaurin (50 mg/kg), vehicle 28%): 33% | Bone Marrow AML Clearance: % hCD33 + hCD45+ (% of white cells) [2, 5]: 51.84% and 6.3% and 22.34% and 59.24% and 25.84% | Bone Marrow AML Clearance: % hCD45+ (% of white cells) [2, 5]: 51.3% and 6.25% and 22.22% and 58.42% and 25.71% | % human AML cells in bone marrow (of white cells; lower = more clearance) ([2]; group F: midostaurin (50 mg/kg), vehicle 86%): 26% | AML clearance (% hCD33 + hCD45+ (of total white cells)) ([3]; Treatment day 7): 10.05% and 3.62% and 8.05% and 11.35% and 2.53% | AML clearance (% hCD33 + hCD45+ (of total white cells)) ([3]; Treatment day 23): 6.24% and 3.75% and 7.09% and 2.63% and 0.84% | AML clearance (% hCD33 + hCD45+ (of total white cells)) ([3]; Treatment day 36): 3.7% and 1.83% and 4.68% and 2.15% and 0.28% | AML clearance (% hCD33 + hCD45+ (of total white cells)) ([3]; Treatment day 50): 2.21% and 0.76% and 3.72% and 1.29% and 0.21% | AML clearance (% hCD33 + hCD45+ (of total white cells)) ([3]; Treatment day 64): 7.01% and 2.16% and 3.93% and 4.84% and 0.18% | AML clearance (% hCD33 + hCD45+ (of total white cells)) ([3]; Treatment day 78): 18.03% and 2.94% and 8.24% and 14.27% and 0.14% | AML clearance (% hCD33 + hCD45+ (of total white cells)) ([3]; Treatment day 92): 35.38% and 4.09% and 14.55% and 30.48% and 0.86% | AML clearance (% hCD33 + hCD45+ (of total white cells)) ([3]; Treatment day −8): 7.94% and 8.17% and 6.23% and 2.27% | % peripheral blood AML cells (treatment group value) ([3]; day 50, vehicle 32%): 1.1% | % peripheral blood AML cells (treatment group value) ([3]; day 64, vehicle 67%): 2.2% | % peripheral blood AML cells (treatment group value) ([3]; day 78, vehicle 129%): 3.9%
